Laboratory results as given in article PMC6199744, “Development of Chemical Proteomics for the Folateome and Analysis of the Kinetoplastid Folateome” (ACS Infectious Diseases, 2018).
Where two headings read alike, the source gives them in different places.

Experiments:
Type in all cases: binding
[1] = target: T1, HeLa cell extract proteins (Homo sapiens, UniProt P16083)
T1 construct: endogenous in cells; host or cells: HeLa cell extract
T1 sequence (P16083 1-231): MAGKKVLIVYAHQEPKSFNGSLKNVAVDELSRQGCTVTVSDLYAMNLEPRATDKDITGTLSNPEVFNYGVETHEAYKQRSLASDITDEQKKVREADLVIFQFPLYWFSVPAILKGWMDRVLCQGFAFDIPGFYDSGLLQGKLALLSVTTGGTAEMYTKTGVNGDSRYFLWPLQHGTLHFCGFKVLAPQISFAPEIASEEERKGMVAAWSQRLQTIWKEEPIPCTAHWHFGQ

[2] = target: T2, HeLa cell extract proteins (Homo sapiens, UniProt P20073)
T2 construct: endogenous in cells; host or cells: HeLa cell extract
T2 sequence (P20073 1-488): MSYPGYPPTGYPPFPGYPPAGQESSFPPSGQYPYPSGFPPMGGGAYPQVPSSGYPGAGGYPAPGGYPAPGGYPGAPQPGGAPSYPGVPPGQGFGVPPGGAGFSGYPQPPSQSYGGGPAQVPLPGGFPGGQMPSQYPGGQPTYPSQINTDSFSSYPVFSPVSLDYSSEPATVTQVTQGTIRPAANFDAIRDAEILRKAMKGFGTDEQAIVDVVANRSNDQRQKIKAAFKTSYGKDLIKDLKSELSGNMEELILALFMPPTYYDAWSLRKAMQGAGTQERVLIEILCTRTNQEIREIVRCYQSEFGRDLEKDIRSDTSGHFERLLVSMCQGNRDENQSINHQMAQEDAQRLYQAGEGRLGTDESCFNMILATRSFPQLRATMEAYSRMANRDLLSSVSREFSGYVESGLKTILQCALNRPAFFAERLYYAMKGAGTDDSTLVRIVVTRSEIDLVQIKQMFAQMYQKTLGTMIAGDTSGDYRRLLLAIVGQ

[3] = target: T3, HeLa cell extract proteins (Homo sapiens, UniProt P22234)
T3 construct: endogenous in cells; host or cells: HeLa cell extract
T3 sequence (P22234 1-425): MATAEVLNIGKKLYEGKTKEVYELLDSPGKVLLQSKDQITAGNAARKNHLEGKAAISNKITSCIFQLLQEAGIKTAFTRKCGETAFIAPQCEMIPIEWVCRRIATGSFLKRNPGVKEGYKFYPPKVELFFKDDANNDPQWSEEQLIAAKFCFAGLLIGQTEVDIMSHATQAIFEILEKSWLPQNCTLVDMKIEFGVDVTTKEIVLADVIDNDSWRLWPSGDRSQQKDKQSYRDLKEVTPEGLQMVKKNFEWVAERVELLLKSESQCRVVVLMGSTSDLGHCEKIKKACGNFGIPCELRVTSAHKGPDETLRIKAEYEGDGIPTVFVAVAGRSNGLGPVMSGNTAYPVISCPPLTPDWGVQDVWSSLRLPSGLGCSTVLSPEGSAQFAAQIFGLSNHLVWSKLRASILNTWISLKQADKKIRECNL

[4] = target: T4, HeLa cell extract proteins (Homo sapiens, UniProt P27797)
T4 construct: endogenous in cells; host or cells: HeLa cell extract
T4 sequence (P27797 18-417): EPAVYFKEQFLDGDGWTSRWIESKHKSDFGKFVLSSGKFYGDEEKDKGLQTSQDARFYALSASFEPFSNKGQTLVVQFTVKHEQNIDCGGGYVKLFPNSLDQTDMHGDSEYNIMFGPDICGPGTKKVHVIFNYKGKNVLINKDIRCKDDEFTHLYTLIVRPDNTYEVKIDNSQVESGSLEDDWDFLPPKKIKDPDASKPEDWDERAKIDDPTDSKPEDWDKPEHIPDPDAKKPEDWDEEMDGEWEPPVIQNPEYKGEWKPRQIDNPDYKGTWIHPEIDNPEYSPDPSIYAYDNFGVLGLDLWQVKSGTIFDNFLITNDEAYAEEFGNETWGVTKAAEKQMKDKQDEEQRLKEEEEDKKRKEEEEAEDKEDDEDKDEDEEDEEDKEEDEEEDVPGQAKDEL

[5] = target: T5, HeLa cell extract proteins (Homo sapiens, UniProt Q9H2U2)
T5 construct: endogenous in cells; host or cells: HeLa cell extract
T5 sequence (Q9H2U2 33-334): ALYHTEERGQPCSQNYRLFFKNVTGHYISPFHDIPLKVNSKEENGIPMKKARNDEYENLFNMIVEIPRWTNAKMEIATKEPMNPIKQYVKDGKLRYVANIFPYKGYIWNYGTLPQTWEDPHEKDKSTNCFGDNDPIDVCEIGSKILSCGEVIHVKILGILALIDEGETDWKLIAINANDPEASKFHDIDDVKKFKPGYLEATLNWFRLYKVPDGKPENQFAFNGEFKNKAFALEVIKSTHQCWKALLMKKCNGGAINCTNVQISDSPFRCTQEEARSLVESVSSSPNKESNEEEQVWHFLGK

[6] = target: T6, HeLa cell extract proteins (Homo sapiens, UniProt Q9Y5Y0)
T6 construct: endogenous in cells; host or cells: HeLa cell extract
T6 sequence (Q9Y5Y0 1-555): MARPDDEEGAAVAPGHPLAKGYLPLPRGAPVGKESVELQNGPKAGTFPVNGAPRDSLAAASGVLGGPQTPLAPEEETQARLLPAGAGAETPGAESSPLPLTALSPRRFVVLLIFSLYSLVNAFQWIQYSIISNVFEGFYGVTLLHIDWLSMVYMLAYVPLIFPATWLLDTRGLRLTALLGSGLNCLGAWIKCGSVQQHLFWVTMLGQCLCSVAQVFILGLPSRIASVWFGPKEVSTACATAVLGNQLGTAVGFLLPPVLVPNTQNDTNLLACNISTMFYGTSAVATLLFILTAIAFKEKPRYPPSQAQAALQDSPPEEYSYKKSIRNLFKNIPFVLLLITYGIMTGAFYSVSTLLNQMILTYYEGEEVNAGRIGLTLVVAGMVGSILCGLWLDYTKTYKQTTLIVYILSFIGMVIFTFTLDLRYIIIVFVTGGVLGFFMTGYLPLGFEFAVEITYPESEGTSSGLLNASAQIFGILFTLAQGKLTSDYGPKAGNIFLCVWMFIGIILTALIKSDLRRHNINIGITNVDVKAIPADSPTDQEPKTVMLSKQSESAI

SMILES | fold changes relative to vehicle control ([1]; protein NQO2, HeLa) | fold changes relative to vehicle control ([2]; HeLa, protein ANXA7) | fold changes relative to vehicle control ([3]; HeLa, protein PAICS) | fold changes relative to vehicle control ([4]; HeLa, protein CALR) | fold changes relative to vehicle control ([5]; HeLa, protein PPA2) | fold changes relative to vehicle control ([6]; protein FLVCR1, HeLa) | fold changes relative to vehicle control ([1]; HeLa, protein NQO2) | fold changes relative to vehicle control ([2]; protein ANXA7, HeLa) | fold changes relative to vehicle control ([3]; protein PAICS, HeLa) | fold changes relative to vehicle control ([5]; protein PPA2, HeLa) | fold changes relative to vehicle control ([6]; HeLa, protein FLVCR1) | also measured
Nc1nc2c(c(=O)[nH]1)N(C=O)C(CNc1ccc(C(=O)N[C@@H](CCC(=O)O)C(=O)O)cc1)CN2 (stereo partly drawn) [LEU, leucovorin] | 1.1 | 0.98 | 0.97 | 1.15 | 1.16 | 0.57 | – | – | – | – | – | –
Nc1nc2[nH]cc(CCc3ccc(C(=O)N[C@@H](CCC(=O)O)C(=O)O)cc3)c2c(=O)[nH]1 [PTX, pemetrexed] | – | – | – | – | – | – | – | – | – | – | – | fold changes relative to vehicle control [1]: 0.16; fold changes relative to vehicle control [2]: 1.02; fold changes relative to vehicle control [3]: 0.86; fold changes relative to vehicle control [4]: 1.22; fold changes relative to vehicle control [5]: 1.05; fold changes relative to vehicle control [6]: 0.59
CCCCCCOc1ccc(Cc2cnc(N)nc2N)cc1 [compound 1] | – | – | – | – | – | – | 0.91 | 1.06 | 1.07 | 1.04 | 0.78 | fold changes relative to vehicle control ([4]; HeLa, protein CALR (CA[…].)): 1.46 fold
CCCCCCOc1cccc(Cc2cnc(N)nc2N)c1 [compound 2] | – | – | – | – | – | – | 0.7 | 1.58 | 1.68 | 1.59 | 0.95 | fold changes relative to vehicle control ([4]; HeLa, protein CALR (CALRETICULIN PRECURSOR.)): 3.14 fold
Nc1nc2cccc(-c3ccccc3)c2n1Cc1ccc(Cl)c(Cl)c1 [compound 3] | – | – | – | – | – | – | 0.99 | 0.91 | 0.94 | 0.97 | 0.75 | fold changes relative to vehicle control ([4]; HeLa, protein CALR (CA[…].)): 0.77 fold
NCCOCCOCC(=O)Nc1nc2ncc(CNc3ccc(C(=O)NC(CCC(=O)O)C(=O)O)cc3)nc2c(=O)[nH]1 (stereo not drawn) [compound 6] | 0.72 | 1.13 | 1.22 | 1.33 | 1.24 | 0.62 | – | – | – | – | – | –
NCCCNc1ccc(C(=O)NC(CCC(=O)O)C(=O)O)cc1 (stereo not drawn) [compound 7] | 1.04 | 0.83 | 0.98 | 0.93 | 1.02 | 0.57 | – | – | – | – | – | –
